From patent publication US20250255992A1, “COXIB-DERIVED CONJUGATE COMPOUNDS AND METHODS OF USE THEREOF” (Reiley Pharmaceuticals, Inc., priority 2020, published 2025)

Experiments:
COX-2 = COX-2 (Mus musculus (Mouse), UniProt Q05769); assay: Cell-based COX-2 assay (PGE2 in LPS/IFN-g stimulated RAW264.7 cells); settings: RAW264.7 murine macrophages, LPS + IFN-g, PGE2 readout
Experimental: Cell culture: RAW264.7 murine macrophages are obtained from the Cell Bank of Shanghai Institute of Biochemistry and Cell Biology, Chinese Academy of Sciences (Shanghai, China) and cultured in Dulbecco's modified Eagle's medium containing 100 U/ml penicillin and 100 µg/ml streptomycin at 37° C. in 5% CO2.
The cells are pre-incubated for 30 min with various doses of compounds and stimulated for 7 h with […] LPS and 10 U/ml IFN-g. The cell culture supernatants are collected immediately following treatment and centrifuged at 1,000 rpm for 5 min to remove the particulate matter. PGE2 is determined using a Prostaglandin E2 assay kit (catalog no. 62P2APEB; Cisbio Co.). […] Replace the standard by 10 μL of diluent and PGE2-d2 by 5 μL of reconstitution buffer, Cal0 (for positive control), replace the standard by 10 µL of diluent. Incubate at 4° C. overnight.
(§1) Dose-response curves are generated using XLFit (IDBS, Surrey, UK) or Prism (GraphPad Software, La Jolla, CA, US) to calculate IC50 values for each compound tested.

human COX-2 = human COX-2 (Homo sapiens (Human), UniProt P35354); format: biochemical; settings: read-out: COX-2 IC50 (μM) enzyme
ovine COX-1 = ovine COX-1 (Ovis aries (Sheep), UniProt P05979); assay: COX-1/-2 enzyme assay (EIA kit), COX-1; format: biochemical; settings: ovine COX-1 enzyme immunoassay
Experimental: COX-1/-2 enzyme assay: The ability of compounds to inhibit ovine COX-1 and human COX-2 is determined using a commercially available enzyme immunoassay (EIA) kit (catalog no. 701090 (COX-1); 701080 (COX-2) Cayman Chemical Co., Ann Arbor, MI, USA) according to the manufacturer's protocol. COX catalyzes the first step in the biosynthesis of AA to PGH2. PGF2α, produced from PGH2 by reduction with stannous chloride, was measured by EIA (ACE™ competitive EIA, Cayman Chemical, Ann Arbor, MI, USA). Briefly, to a series of supplied reaction buffer solutions [960 μl 0.1 M Tris-HCl (pH 8.0) containing 5 mM EDTA and 2 mM phenol] with either COX-1 or COX-2 (10 μl) enzyme in the presence of heme (10 μl), 10 μl of various concentrations of test drug solutions are added. These solutions are incubated for 15 min at 37° C. and subsequently 10 μl AA solution (100 μM) is added. The COX reaction is stopped by the addition of 30 μl stannous chloride after 2 min, mixed immediately, supernatants are 2000-fold diluted. The produced PGF2α is measured by EIA. This assay is based on the competition between PGs and a PG-acetylcholinesterase conjugate (PG tracer) for a limited amount of PG antiserum. The amount of PG tracer that is able to bind to the PG antiserum is inversely proportional to the concentration of PGs in the wells since the concentration of the PG tracer is held at a constant while the concentration of PGs varies. The specific antiserum-PG complex binds to a mouse anti-rabbit IgG that had been previously attached to the well. The plate is washed to remove any unbound reagents and 200 μl Ellman's reagent (5,5′-dithiobis-(2-nitrobenzoic acid), which contains the substrate to acetylcholine esterase, is added to the well. The product of this enzymatic reaction generates a distinct yellow color that absorbs at 406 nm. The intensity of this color, determined by spectrophotometry, is proportional to the amount of PG tracer bound to the well, which is inversely proportional to the amount of PGs present in the well during the incubation. Percent inhibition is calculated by the comparison of the compounds treated to the various control incubations.
as §1

Sequence of human COX-2 (P35354 18-604 limits assumed): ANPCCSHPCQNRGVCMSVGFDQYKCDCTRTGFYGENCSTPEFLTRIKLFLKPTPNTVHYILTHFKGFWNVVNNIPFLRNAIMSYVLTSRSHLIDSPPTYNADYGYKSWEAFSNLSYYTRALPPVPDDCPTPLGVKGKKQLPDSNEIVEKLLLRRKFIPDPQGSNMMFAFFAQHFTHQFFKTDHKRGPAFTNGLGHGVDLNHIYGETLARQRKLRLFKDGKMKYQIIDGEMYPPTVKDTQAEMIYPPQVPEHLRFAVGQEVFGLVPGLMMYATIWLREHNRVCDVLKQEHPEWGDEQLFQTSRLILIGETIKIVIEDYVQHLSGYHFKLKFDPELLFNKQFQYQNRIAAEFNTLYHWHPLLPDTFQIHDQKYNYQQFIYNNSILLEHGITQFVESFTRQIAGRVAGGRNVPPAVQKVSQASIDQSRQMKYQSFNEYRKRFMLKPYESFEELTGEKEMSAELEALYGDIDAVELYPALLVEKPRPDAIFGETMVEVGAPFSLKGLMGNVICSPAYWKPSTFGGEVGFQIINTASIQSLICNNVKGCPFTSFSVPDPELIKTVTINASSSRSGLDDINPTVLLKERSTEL
Sequence of ovine COX-1 (P05979 25-600 limits assumed): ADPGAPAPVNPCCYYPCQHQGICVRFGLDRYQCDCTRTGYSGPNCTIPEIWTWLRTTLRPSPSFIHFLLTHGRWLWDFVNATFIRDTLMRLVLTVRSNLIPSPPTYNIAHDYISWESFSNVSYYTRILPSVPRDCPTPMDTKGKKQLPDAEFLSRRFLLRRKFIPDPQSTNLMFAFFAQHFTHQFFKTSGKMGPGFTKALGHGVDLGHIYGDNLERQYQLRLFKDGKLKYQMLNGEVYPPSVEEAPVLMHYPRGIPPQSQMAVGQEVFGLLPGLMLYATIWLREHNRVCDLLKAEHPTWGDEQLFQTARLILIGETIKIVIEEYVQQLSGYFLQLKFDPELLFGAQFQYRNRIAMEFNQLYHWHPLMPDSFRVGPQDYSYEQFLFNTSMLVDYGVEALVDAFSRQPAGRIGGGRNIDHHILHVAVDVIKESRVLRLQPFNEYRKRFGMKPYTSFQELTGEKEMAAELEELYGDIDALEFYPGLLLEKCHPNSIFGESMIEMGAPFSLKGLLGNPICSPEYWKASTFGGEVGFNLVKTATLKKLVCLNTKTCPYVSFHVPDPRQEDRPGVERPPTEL
Sequence of COX-2 (Q05769 18-604): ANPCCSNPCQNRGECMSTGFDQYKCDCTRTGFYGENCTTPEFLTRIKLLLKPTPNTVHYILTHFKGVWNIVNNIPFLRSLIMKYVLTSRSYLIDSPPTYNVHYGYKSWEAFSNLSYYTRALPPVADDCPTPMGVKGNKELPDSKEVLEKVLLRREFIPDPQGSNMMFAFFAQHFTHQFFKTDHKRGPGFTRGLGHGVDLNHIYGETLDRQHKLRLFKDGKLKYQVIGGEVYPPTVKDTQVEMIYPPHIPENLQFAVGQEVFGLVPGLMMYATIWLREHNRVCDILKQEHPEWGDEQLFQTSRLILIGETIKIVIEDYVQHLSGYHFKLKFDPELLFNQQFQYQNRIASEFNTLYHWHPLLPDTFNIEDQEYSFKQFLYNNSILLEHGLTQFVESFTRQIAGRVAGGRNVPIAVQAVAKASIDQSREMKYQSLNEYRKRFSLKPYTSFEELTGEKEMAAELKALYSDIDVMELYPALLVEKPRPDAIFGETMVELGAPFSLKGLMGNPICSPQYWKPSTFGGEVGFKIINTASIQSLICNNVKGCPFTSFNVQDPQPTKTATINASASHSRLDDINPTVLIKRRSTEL

## NS(=O)(=O)c1ccc(-n2nc(CCCCCCCCN3CC[S][Re]4(=[O])[S]CC[N]4CC3)cc2-c2ccc(Cl)cc2)cc1 (stereo not drawn) [Compound 9]
COX-2
  IC50: 0.19 µM
Human COX-2
  IC50: 0.11 µM

## COc1ccc(-c2cc(CCCCCCCCC[N+]34CC[S][Re]35(=[O])[S]CC[N]5CC4)nn2-c2ccc(S(N)(=O)=O)cc2)cc1 (stereo not drawn) [Compound 10]
COX-2
  IC50: 0.16 µM
Human COX-2
  IC50: 0.06 µM
Ovine COX-1
  IC50: > 10 µM

## Cc1ccc(-c2cc(CCCCCCCCCN3CC[S][Re]4(=[O])[S]CC[N]4CC3)nn2-c2ccc(S(N)(=O)=O)cc2)cc1 (stereo not drawn) [Compound 11]
COX-2
  IC50: 0.2 µM
Human COX-2
  IC50: 4.49 µM

## NS(=O)(=O)c1ccc(-c2c(-c3ccccc3)noc2CCCCCCC[N+]23CC[S][Re]24(=[O])[S]CC[N]4CC3)cc1 (stereo not drawn) [Compound 27]
COX-2
  IC50: 0.07 µM
Human COX-2
  IC50: 0.07 µM
Ovine COX-1
  IC50: > 10 µM

## NS(=O)(=O)c1ccc(-n2nc(CCCCCCCCC[N+]34CC[S][Re]35(=[O])[S]CC[N]5CC4)cc2-c2ccc(Cl)cc2)cc1 (stereo not drawn) [Compound 8]
COX-2
  IC50: 0.2 µM
Human COX-2
  IC50: 0.19 µM

## NS(=O)(=O)c1ccc(-n2nc(COCCCC[N+]34CC[S][Re]35(=[O])[S]CC[N]5CC4)cc2-c2ccc(F)cc2)cc1 (stereo not drawn) [Compound 15]
Human COX-2
  IC50: 2.37 µM

## NS(=O)(=O)c1ccc(-n2nc(CCCCCN3CC[S][Re]4(=[O])[S]CC[N]4CC3)cc2-c2ccc(F)cc2)cc1 (stereo not drawn) [Compound 2]
COX-2
  IC50: 0.66 µM
Human COX-2
  IC50: 1.33 µM

## NS(=O)(=O)c1ccc(-c2c(-c3ccccc3)noc2CCCCCC[N+]23CC[S][Re]24(=[O])[S]CC[N]4CC3)cc1 (stereo not drawn) [Compound 26]
COX-2
  IC50: 0.23 µM
Human COX-2
  IC50: 0.16 µM

## NS(=O)(=O)c1ccc(-n2nc(CCCCCCCCN3CC[S][Re]4(=[O])[S]CC[N]4CC3)cc2-c2ccc(F)cc2)cc1 (stereo not drawn) [Compound 4]
COX-2
  IC50: 0.32 µM
Human COX-2
  IC50: 0.59 µM

## NS(=O)(=O)c1ccc(-n2nc(CCCCCCCCC[N+]34CC[S][Re]35(=[O])[S]CC[N]5CC4)cc2-c2ccc(F)cc2)cc1 (stereo not drawn) [Compound 5]
COX-2
  IC50: 0.15 µM
Human COX-2
  IC50: 0.13 µM
Ovine COX-1
  IC50: > 10 µM

## NS(=O)(=O)c1ccc(-n2nc(COCCCCCCN3CC[S][Re]4(=[O])[S]CC[N]4CC3)cc2-c2ccc(Cl)cc2)cc1 (stereo not drawn) [Compound 18]
Human COX-2
  IC50: > 10 µM

## NS(=O)(=O)c1ccc(-n2nc(CCCCCCCN3CC[S][Re]4(=[O])[S]CC[N]4CC3)cc2-c2ccc(Cl)cc2)cc1 (stereo not drawn) [Compound 7]
Human COX-2
  IC50: > 10 µM

## NS(=O)(=O)c1ccc(-n2nc(COCCCCCC[N+]34CC[S][Re]35(=[O])[S]CC[N]5CC4)cc2-c2ccc(F)cc2)cc1 (stereo not drawn) [Compound 14]
Human COX-2
  IC50: 2.36 µM

## NS(=O)(=O)c1ccc(-n2nc(COCCCCCCC[N+]34CC[S][Re]35(=[O])[S]CC[N]5CC4)cc2-c2ccc(F)cc2)cc1 (stereo not drawn) [Compound 16]
COX-2
  IC50: 0.21 µM
Human COX-2
  IC50: 0.31 µM
Ovine COX-1
  IC50: > 10 µM

## NS(=O)(=O)c1ccc(-n2nc(CCCCCCN3CC[S][Re]4(=[O])[S]CC[N]4CC3)cc2-c2ccc(Cl)cc2)cc1 (stereo not drawn) [Compound 6]
Human COX-2
  IC50: 3.31 µM

## COc1ccc(-c2cc(COCCCCCCCN3CC[S][Re]4(=[O])[S]CC[N]4CC3)nn2-c2ccc(S(N)(=O)=O)cc2)cc1 (stereo not drawn) [Compound 20]
COX-2
  IC50: 0.22 µM
Human COX-2
  IC50: 0.54 µM

## Cc1ccc(-c2cc(COCCCCCCC[N+]34CC[S][Re]35(=[O])[S]CC[N]5CC4)nn2-c2ccc(S(N)(=O)=O)cc2)cc1 (stereo not drawn) [Compound 21]
COX-2
  IC50: 0.15 µM
Human COX-2
  IC50: 2.48 µM

## NS(=O)(=O)c1ccc(-c2c(-c3ccccc3)noc2CCCCCCCCC[N+]23CC[S][Re]24(=[O])[S]CC[N]4CC3)cc1 (stereo not drawn) [Compound 28]
COX-2
  IC50: 0.025 µM
Human COX-2
  IC50: 0.019 µM
Ovine COX-1
  IC50: > 10 µM

## NS(=O)(=O)c1ccc(-n2nc(CCCCCCCN3CC[S][Re]4(=[O])[S]CC[N]4CC3)cc2-c2ccc(F)cc2)cc1 (stereo not drawn) [Compound 3]
Human COX-2
  IC50: > 10 µM

## NS(=O)(=O)c1ccc(-n2nc(COCCCOCCCN3CC[S][Re]4(=[O])[S]CC[N]4CC3)cc2-c2ccc(F)cc2)cc1 (stereo not drawn) [Compound 17]
Human COX-2
  IC50: 4.15 µM

## COc1ccc(-c2cc(COCCCCCCN3CC[S][Re]4(=[O])[S]CC[N]4CC3)nn2-c2ccc(S(N)(=O)=O)cc2)cc1 (stereo not drawn) [Compound 19]
Human COX-2
  IC50: 4.51 µM
